From patent US20210085699A1, “COMBINATION THERAPIES FOR TREATING CANCERS” (priority 2018, published 2021)

How the values were obtained:
MEC1 cells [1] = assay: MEC1 xenograft in NRG mice, tumor burden by human CD19+ cells (flow cytometry); type: in vivo
Experimental: To test that hypothesis, the two cell lines were tested for 2DG sensitivity in vivo: immunodeficient NOD.Cg-Rag1^tm1MomIl2rg^tm1Wjl/SzJ (NRG™) mice were xenografted with either MEC1 or CCRF-SB cells, and the mice were then treated with 200 μL of 600 mM 2DG or glucose I.P. three times per week for two weeks. Both MEC1 and CCRF-SB cells migrate to the spleen and bone marrow, and since these mice […] CD19+ B-cells, the tumor burden can be measured terminally in these organs by anti-human CD19 staining via flow cytometry after euthanasia at the end of the treatment period.
Because DIDS was effective in reducing numbers of MEC1 B-cells ex vivo, its effectiveness was tested in vivo. […] MEC1 cells were xenografted into immunodeficient NRG™ mice for two weeks, and mice were then treated either with DIDS at 50 mg/kg or with a 0.1 M potassium bicarbonate/PBS vehicle, once per week for an additional two weeks. NRG™ mice were used because they were deficient in CD19 cells, allowing quantification of MEC1 B-cells by staining spleen cells for human CD19, as the spleen is a homing organ for MEC1 B-cells, all of which are positive for CD19.
Mice were treated I.P. three times weekly for two weeks. 1) mice were dosed I.P. with 10 mg/kg DIDS, a fifth of the dose required to elicit an effect in vivo (FIG. 4D); 2) mice were treated I.P. with 220 mg/kg of 2DG or glucose; a third of the dose of 2DG required for an effect (FIG. 3C); 3) mice were treated with both DIDS and 2DG, at the same doses used in the first two groups; 4) as a positive control, mice were treated with fludarabine, a compound frequently used to treat CLL, at 35 mg/kg, a dose commonly used to elicit an effect; and 5) as a negative control, mice were treated with vehicle consisting of glucose in PBS (41). Following the 2-week treatment period, bone marrow and spleens were assessed for tumor burden, by determining the percentages of human CD19-positive cells via flow cytometry (FIG. 5C).
(§1) Human cancer cell lines were xenografted into NRG mice in the following way: Cells grown in flasks were given fresh media the night before xenograftment and seeded at 10^6 cells per mL. The next day, the cells were washed twice with DPBS without calcium or magnesium and resuspended to 1-2×10^8 cells per mL of DPBS at room temperature and immediately injected via tail vein at 100 μL per mouse. The cells were given 7-10 days to fully xenograft, after which tumor load in the blood was assessed via flow cytometry (FACSCaliber II) for human CD19+ cells (Antibody cat no. 555413, BD Parmingen). Mice with similar tumor loads were assigned to different treatment groups to decrease bias and ensure more even tumor load across treatments. Mice were treated as described in the Results section for two weeks unless otherwise indicated. Upon euthanasia, the spleen and the bone marrow were harvested and stained for human CD19, and the cells were measured by flow cytometry on the FACSCaliber II. Analysis of the flow data was done by Flowjo version 8.8.7 (BD Pharmingen).
Xenografts were done as follows: NOD. Rag1−/− IL-2rg−/− (NRG) mice obtained from the Jackson Laboratory were xenografted for one to two weeks with Non Hogdkin's Leukemia CCRFSB, Chronic lymphocytic leukemia MEC1 cells or MEC1 cells carrying the luciferase gene (MEC1_LUC). Mice were then randomly assigned to treatment or vehicle cohort, and treated for two weeks.

MEC1 cells [2] = assay: Ex vivo growth/survival of MEC1 cells; type: cell-based, human
[3] = tested on: AID knock-out MEC1 (AKO) cells; assay: Ex vivo growth of AID knock-out MEC1 (AKO) cells; type: cell-based, human; details: DIDS vs vehicle
Experimental: (§2) Theoretically, this would result in a truncated, non-functional AID, which was termed AID knock-out MEC1 (AKO) cells. To test the dependence of DIDS on AID, AKO cells were treated with DIDS and compared their growth with that of parental MEC1 cells. […] To test whether AID sufficiency was required for DIDS efficacy in vivo, AKO and parental cells were xenografted in NRG™ mice, and mice were treated with 50 mg/kg of DIDS for two weeks. […] Thus, the therapeutic effect of DIDS in MEC1 xenografts depended on AID.
AID knock out (AKO) MEC1 cell lines were developed by targeting Exon 2 of AID with the following guide RNAs: CTTGATGAACCGGAGGAAG (SEQ ID NO: 1), GTCCGCTGGGCTAAGGGTC (SEQ ID NO: 2), GTGCTACATCCTTTTCAC (SEQ ID NO: 3). These guides were cloned into the Cas9-EGFP vector, pX330 (Addgene, Cat. no. 66582). These vectors were nucleofected into MEC1 cells using Amaxa Cell Line Nucleofector Kit V using program X-001, and according to manufacturer's instructions (Lonza, Cat. no. VACA-1003). Nucleofected cells were sorted for GFP positivity and cloned by limited dilution to generate AKO cell lines. Two independent AKO cell lines (14-1 and 14-3) were confirmed for AID nullizygosity using both genomic and transcript PCRs.

[4] = tested on: AID knock-out MEC1 (AKO) cells; assay: AKO cell xenograft in NRG mice treated with DIDS; type: in vivo, human; details: DIDS 50 mg/kg for two weeks
Experimental: as §2
as §1, with “Mice with similar tumor loads were assigned to different treatment groups to decrease bias and ensure more even tumor load across treatments. Mice were treated as described in the Results section for two weeks unless otherwise indicated.” left out, “Analysis of the flow data was done by Flowjo version 8.8.7 (BD Pharmingen).” left out

[5] = tested on: splenocytes, live white blood cells (CD45+ Ter119-PI−); assay: In vivo DIDS treatment of AID-null mice followed by ex vivo ionizing radiation of splenocytes; design: species or system mouse
Experimental: Whether DIDS could block repair of AID-independent double-strand breaks (frank or single-strand staggered double-strand breaks) in vivo was determined. A common way to generate double-strand breaks is via ionizing radiation (1, 38, 39). For this, AID-null mice were treated with different concentrations of DIDS (0, 5, or 10 mg/kg) for eight hours, and then harvested splenocytes and treated them with different doses of IR (0, 1, 5, 10 Gy). Eighteen hours after IR, the numbers of live white blood cells (CD45+ Ter119-PI−) were measured by flow cytometry.

[6] = tested on: AID-positive neoplastic cell lines; details: tissue culture; reference (17); cited from earlier work
[7] = tested on: human CLL cells from patients; details: patient cells ex vivo; reference (17); cited from earlier work

O=S(=O)(O)c1cc(N=C=S)ccc1/C=C/c1ccc(N=C=S)cc1S(=O)(=O)O [DIDS, 4,4′-Diisothiocyano-2,2′-stilbenedisulfonic acid]
mice showing significant (p=0.001) reduction in number of MEC1 cells in the spleen (MEC1 cells [1]; DIDS 50 mg/kg once per week for two weeks, vs vehicle): 10/11
tumor burden in vivo (luciferase imaging, flow cytometry of bone marrow and spleen) (MEC1 cells [1]; FIG. 10 legend, MEC1 or MEC1 LUC, DIDS 50 mg/kg for two weeks): a high dose of DIDS is required to reduce tumor burden in vivo
cytotoxic effect on MEC1 B-cells (MEC1 cells [2]; DIDS 0.05 mM, 5 days, 2×10^5 cells): Cytotoxic effects of DIDS on MEC1 B-cells were seen as early as 5 days
cytotoxic effect on MEC1 B-cells (MEC1 cells [2]; DIDS 0.1 and 0.2 mM, after 5 days): significant effect was observed
cell numbers (MEC1 cells [2]; DIDS alone, titrated, day 2): reduction of cell numbers as the concentration of DIDS was increased
growth rate of AKO cells [3]: grew at a similar rate regardless of whether the cells were treated with vehicle or DIDS
spleen weights, AKO vs parental MEC1 [4]: AKO cells were more resistant to DIDS
tumor burden by percentages of human CD19 cells, AKO vs parental MEC1 [4]: AKO cells were more resistant to DIDS
survival of cells after IR ([5]; DIDS 0, 5 or 10 mg/kg for eight hours in AID-null mice, IR 0, 1, 5, 10 Gy ex vivo, eighteen hours after IR): in the presence of DIDS, the effect is significantly greater
cell ablation at 10 Gy, normalized to 0 mg/Kg DIDS ([5]; IR 10 Gy, DIDS 5 or 10 mg/kg): even a tenth of the dose of DIDS can synergistically enhance the severity of cell ablation
targeting of AID-positive neoplastic cell lines [6]: could specifically target AID-positive neoplastic cell lines in tissue culture
targeting of AID-positive vs AID-negative human CLL cells [7]: targeted AID-positive, but not AID-negative, human CLL cells
